Measurements published in patent publication US20060292158A1, “Method for the treatment of cancer using a novel pharmaceutical composition containing at least one dolastatin 10 derivative” (priority 2004, published 2006).

How the values were obtained:
[1] = system: MAXF-401 human breast carcinoma xenograft; assay: Antitumor activity in MAXF-401 subcutaneous xenograft in athymic nude mice, combination with capecitabine (Example 3); assay type: in vivo; conditions: monotherapy 3, 4 or 6 mg/kg; one week after final injection; 2.5% DMSO control
Protocol: The MAXF-401 human breast carcinoma cell line was obtained from Prof Fiebig (University of Freiburg, Germany). This cell line was maintained in mice; the tumor fragments were implanted subcutaneously and serially passaged in mice prior to use.
(§1) One hundred (100) 5-week-old female athymic nude mice (BALB/c nu/nu) were purchased from Charles River Japan, Inc. (Yokohama, Japan). The mice were housed in an air-conditioned room (temperature 22±2° C., relative humidity 55±10%) under 12 h light/dark cycles. The mice were given sterilized CE-2 and tap water with 25μg/mL gentamycin ad libitum. […]
(§2) The in vivo evaluation procedure for anticancer drugs was based on the methods described by Plowman, et al. (1997) for xenograft models. […] The tumor volume and body weight of each mouse were measured twice a week. […] One week after the final injection, tumor growth inhibition (TGI) was calculated using the formula (1-T/C)×100 (%), where T (treated group) and C (control group) represent the mean tumor volume change. ED50 values were calculated from values of tumor growth inhibition on day 21 using the XL fit program. […]
Packaged software (SAS preclinical package version 5.0,SAS Institute Japan, Ltd.) was used for the statistical analysis. […] ED50s were calculated from values of tumor growth inhibition percentage using XL fit program #509 (MS Excel Add Version 3.0.5 Build -In: XLfit3 12, ID Business Solutions Ltd.)

[2] = system: KPL-4 human breast carcinoma xenograft; assay: Antitumor activity in KPL-4 orthotopic xenograft in athymic nude mice, combination with pertuzumab (Example 2); assay type: in vivo; conditions: monotherapy 3, 4 or 6 mg/kg; day 21
Protocol: The KPL-4 human breast carcinoma cell line was kindly donated by Prof. Kurebayashi, Kawasaki Medical Center. The cells were cultured in Dulbecco's MEM (Sigma Chemical Co.) supplemented with 5% (v/v) fetal bovine serum (Roche Diagnostics).
as §1
as §2, with “The In” for “The in”, “on” for “on the”
Packaged software (SAS preclinical package version 5.0, SAS Institute Japan, Ltd.) was used for the statistical analysis. […] ED50s were calculated from values of tumor growth inhibition percentage using XL fit program #509 (MS Excel Add-In: XLfit3 Version 3.0.5 Build 12, ID Business Solutions Ltd.)

## CC[C@H](C)[C@@H]([C@@H](CC(=O)N1CCC[C@H]1[C@H](SC)[C@@H](C)C(=O)N(C)CCc1cccc(O)c1)OC)N(C)C(=O)[C@@H](NC(=O)[C@H](C(C)C)N(C)C)C(C)C [compound of formula (I-A), N-[1-({1-sec-Butyl-4-[2-(2-{[2-(3-hydroxy-phenyl)-ethyl]-methyl-carbamoyl}-1-methylsulfanyl-propyl)-pyrrolidin-1-yl]-2-methoxy-4-oxo-butyl}-methyl-carbamoyl)-2-methyl-propyl]-2-dimethylamino-3-methyl-butyramide]
[1]
  volume of tumor in comparison with control: decreased significantly
[2]
  volume of tumor in comparison with control: decreased strongly
